According to publication PMC9678865, “An odorant-binding protein in the elephant's trunk is finely tuned to sex pheromone (Z)-7-dodecenyl acetate” (Scientific Reports, 2022):
“Also recorded” adds a separate entry of the source.

Columns and labels:
recombinant EmaxOBP1 [1] = target: T1, recombinant EmaxOBP1 (Elephas maximus, UniProt Q8HZN2); experiment: Competitive binding by displacement of 1-NPN; design: species or system Asian elephant (Elephas maximus); conditions: protein and 1-NPN 2 μM each, ligand 2–16 μM
Protocol: (§1) Recombinant LafrOBP1 and EmaxOBP1 were then tested in ligand-binding assays using the Asian elephant pheromones (Z)-7-dodecenyl acetate and frontalin, and the insect pheromone components found in elephants, exo-brevicomin and (E)-β-farnesene, as well as structurally related compounds, and chemicals of different size and structure, which could contribute to estimate the specificity of these proteins. Both LafrOBP1 and EmaxOBP1 bound the fluorescent probe 1-NPN with good affinity (Fig. 5A), thus enabling the use of the fluorescent displacement assay to evaluate the affinities of other ligands. Some representative curves of competitive binding experiments for LafrOBP1 are shown in Fig. 5B-C, while in the histogram of Fig. 5D the binding spectra of LafrOBP1 and EmaxOBP1 are compared. The specificity of LafrOBP1 can be better appreciated from the graph of Fig. 6, where the affinities of esters to the protein are plotted as a function of the ligand's size.
(§2) Affinities of the fluorescent probe N-phenyl-1-naphthylamine (1-NPN) to EmaxOBP1 and LafrOBP1 (both expressed in yeast) were evaluated by titrating a 2 μM solution of each protein in 50 mM Tris-HCl, pH 7.4 with 1 mM 1-NPN in methanol to final concentrations of 2–16 μM. Dissociation constants of other ligands were measured by displacement of the fluorescent reporter 1-NPN from the complex. Accordingly, solutions of protein and 1-NPN, both at the concentration of 2 μM in 50 mM Tris-HCl, pH 7.4, were titrated with 1 mM methanol solutions of each ligand to final concentrations of 2–16 μM. Emission spectra were recorded on a PerkinElmer FL 6500 spectrofluorimeter in a right-angle configuration, at room temperature, with slits of 5 nm for both excitation and emission, using 1 cm path quartz cuvettes. The excitation wavelength was set at 337 nm and intensities were recorded in correspondence with the peak maximum, around 390 nm. Data for 1-NPN were processed with Prism software.
(§3) Dissociation constants of other ligands were calculated from the corresponding [IC]50 values (the. concentration of each ligand halving the initial value of fluorescence), using the equation: Kd = [IC]50/1 + [1-NPN]/KNPN, where [1-NPN] is the concentration of free 1-NPN and KNPN the. dissociation constant of the complex OBP/1-NPN.

recombinant LafrOBP1 = recombinant LafrOBP1 (Loxodonta africana, UniProt G3UMG1); experiment: Competitive binding by displacement of 1-NPN; design: species or system African elephant (Loxodonta africana); conditions: protein and 1-NPN 2 μM each, ligand 2–16 μM
Protocol: as §1, §2, §3

[2] = system: OBP in the trunk wash of the Asian elephant; design: method as in PMID 12269821; conditions: tritium-labelled ligand; radioactivity associated with OBP band; no dissociation constant; cited from earlier work
[3] = system: second major band (apparent mass around 25 kDa) from expression of LafrOBP1 in P. pastoris; experiment: Binding of 1-NPN to the second band (around 25 kDa) from LafrOBP1 expression; design: species or system African elephant (Loxodonta africana); conditions: purified second band
From the text: Based on above-reported proteomic analysis and on the available sequences in the protein databases, we decided to focus our functional study on the OBP1 of both species. Thus, LafrOBP1 and EmaxOBP1 were expressed in the yeast Pichia pastoris using the protocol reported in the Materials and Methods section. We chose to perform functional studies on recombinant proteins because attempts to purify natural LafrOBP1 from its contaminants were unsuccessful (data not shown). The recombinant proteins were secreted in the culture medium, concentrated by ultrafiltration and purified by anion-exchange chromatography, followed by a step of hydrophobic interaction chromatography on Phenyl Sepharose. Figure S3 reports the SDS-PAGE analysis relative to the expression and purification of the two proteins. The expression of EmaxOBP1 produced a single major band migrating with an apparent molecular weight (around 20 kDa), compatible with the calculated mass for this protein (18,506.7 Da). Instead, the expression of the African elephant orthologue afforded two major bands, the first migrating at the same level as EmaxOBP1, the second with an apparent mass around 25 kDa.

recombinant EmaxOBP1 [4] = target: T1, recombinant EmaxOBP1; experiment: Titration of recombinant protein with fluorescent probe 1-NPN; assay type: binding, Asian elephant (Elephas maximus); conditions: 2 μM protein in 50 mM Tris-HCl pH 7.4, room temperature
Protocol: as §2

[5] = target: natural LafrOBP1 (trunk wash fractions 26–29, also containing its isoform and LafrVEG) (Loxodonta africana, UniProt G3UMG1); experiment: Competitive fluorescent (1-NPN) ligand-binding assay on crude anion-exchange fractions 26–29 of trunk wash; design: species or system African elephant (Loxodonta africana); conditions: crude trunk wash fractions 26–29 / natural LafrOBP1
Protocol: Given the predominant presence of LafrOBP1 in the trunk wash of the African elephant, we attempted purification of this protein from a crude sample of this secretion by anion-exchange chromatography. Relevant fractions (#26–29) were analysed by SDS-PAGE, (Fig. 2A) and nanoLC-ESI-Q-Orbitrap-MS/MS to identify the proteins present and detect possible PTMs. The same fractions were also tested in ligand-binding assays with some of the two elephants' pheromones and other potential semiochemicals to detect any binding activity (Fig. 2B-C).
Figure 2 (A) Fractionation of a crude extract of trunk wash from the African elephant by anion-exchange chromatography. SDS-PAGE analysis of the fractions showing electrophoretic bands in the low molecular weight range (15–25 kDa). (B) Summary of the affinities to (Z)-7-dodecenyl acetate, (E)-β-farnesene and frontalin measured with crude samples of the same fractions. All of them bound with good affinity both (Z)-7-dodecenyl acetate and (E)-β-farnesene. […] Dissociation constants were evaluated using the procedure adopted when dealing with solutions of a pure protein; as this is not the case, the values have to be taken as a crude indication of the affinity of the ligands for the protein. (C) Examples of the competition curves measured with the three ligands on fraction 27. […]
as §2, with “Accordingly, solutions of protein and 1-NPN, both at the concentration of 2 μM in 50 mM Tris-HCl, pH 7.4, were titrated with 1 mM methanol solutions of each ligand to final concentrations of 2–16 μM.” left out, “Data for 1-NPN were processed with Prism software.” left out

natural LafrOBP1 (trunk wash fractions 26–29, also containing its isoform and LafrVEG), sequence (G3UMG1 entry or part of it): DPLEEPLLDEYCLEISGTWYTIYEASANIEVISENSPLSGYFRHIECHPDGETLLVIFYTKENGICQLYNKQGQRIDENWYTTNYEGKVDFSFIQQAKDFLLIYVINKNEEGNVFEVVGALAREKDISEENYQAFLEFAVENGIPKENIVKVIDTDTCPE
recombinant LafrOBP1, sequence (G3UMG1 entry or part of it): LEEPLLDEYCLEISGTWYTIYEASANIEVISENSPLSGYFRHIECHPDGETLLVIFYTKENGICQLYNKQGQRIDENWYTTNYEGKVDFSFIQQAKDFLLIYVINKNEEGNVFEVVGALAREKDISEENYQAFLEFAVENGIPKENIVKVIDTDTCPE
T1 sequence (Q8HZN2 entry or part of it): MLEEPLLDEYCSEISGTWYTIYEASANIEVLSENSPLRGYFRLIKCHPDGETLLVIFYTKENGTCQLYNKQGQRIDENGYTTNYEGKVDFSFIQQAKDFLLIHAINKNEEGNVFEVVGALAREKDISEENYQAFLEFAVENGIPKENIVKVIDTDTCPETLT

SMILES | binding to recombinant EmaxOBP1 (in words) (recombinant EmaxOBP1 [1]) | binding to recombinant LafrOBP1 (in words) (recombinant LafrOBP1) | further results
CC1(C)C2CCC1(C)C(O)C2 (stereo not drawn) [borneol] | did not show significant binding | did not show significant binding | –
C=CCc1ccc(O)c(OC)c1 [eugenol] | did not show significant binding; also recorded: did not exhibit significant affinity | did not show significant binding; also recorded: did not exhibit significant affinity | –
CCCC/C=C/CCCCCCOC(C)=O [(E)-7-dodecenyl acetate] | – | – | binding to trunk wash OBP (in words) [2]: shown to bind
c1ccc(Nc2cccc3ccccc23)cc1 [1-NPN, N-phenyl-1-naphthylamine] | – | – | affinity to the 25 kDa band (in words) [3]: did not show any affinity; Kd (recombinant EmaxOBP1 [4]): 460 nM
Cc1ccc(O)cc1 [p-cresol] | did not exhibit significant affinity | did not exhibit significant affinity | –
CCCC/C=C\CCCCCCCCCC=O [(Z)-11-hexadecenal] | did not show significant binding; also recorded: did not exhibit significant affinity | did not show significant binding; also recorded: did not exhibit significant affinity | –
CC(C)=CCC/C(C)=C/CC/C(C)=C/CO [farnesol] | – | – | binding to trunk wash fractions (in words) [5]: as good a ligand as (E)- β-farnesene
CC/C=C\CCOC(C)=O [(Z)-3-hexenyl acetate] | did not show significant binding | did not show significant binding | –
C=CC(=C)CC/C=C(\C)CCC=C(C)C [(E)-β-farnesene, (6E)-7,11-dimethyl-3-methylene-1,6,10-dodecatriene] | – | good ligand | –
CCCC/C=C\CCCCCCOC(C)=O [(Z)-7-dodecenyl acetate] | – | strongest ligand | –
CC12CCC(CC1)C(C)(C)O2 [eucalyptol] | did not show significant binding | did not show significant binding | binding to recombinant EmaxOBP1 (in words) (recombinant EmaxOBP1 [1]; listed as eucaliptol): did not exhibit significant affinity; binding to recombinant LafrOBP1 (in words) (recombinant LafrOBP1; listed as eucaliptol): did not exhibit significant affinity
CCCCCCCCCC1CCC(=O)O1 (stereo not drawn) [γ-tridecalactone] | did not show significant binding | did not show significant binding | –
CC12CCCC(C)(OC1)O2 (stereo not drawn) [frontalin, 1,5-dimethyl-6,8-dioxabicyclo[3.2.1]octane] | no affinity | no affinity; also recorded: did not exhibit any affinity | binding to trunk wash fractions (in words) [5]: none of them appreciably bound; also recorded: no affinity
CCCCCCCCCCCC=O [dodecanal] | did not show significant binding | did not show significant binding | –
CC[C@H]1O[C@]2(C)CCC[C@H]1O2 [exo-brevicomin, (1R,5S,7R)-7-ethyl-5-methyl-6,8-dioxabicyclo[3.2.1]octane] | – | – | binding to trunk wash fractions (in words) [5]: did not exhibit any affinity
CCCC/C=C\CCCCCCCCCCCC=O [(Z)-13-octadecenal] | did not show significant binding; also recorded: did not exhibit significant affinity | did not show significant binding; also recorded: did not exhibit significant affinity | –
CCCCCCCC=O [octanal] | did not show significant binding; also recorded: did not exhibit significant affinity | did not show significant binding; also recorded: did not exhibit significant affinity | –
CCCCCC/C=C\CCCCCCCC=O [(Z)-9-hexadecenal] | did not show significant binding | did not show significant binding | –
CCCCCCCCCC=O [decanal] | did not show significant binding; also recorded: did not exhibit significant affinity | did not show significant binding; also recorded: did not exhibit significant affinity | –
CCCCCCCCCCCCCC(=O)OCC [ethyl myristate] | did not show significant binding | did not show significant binding | –
CCCC/C=C\CCCCCCCCCCOC(C)=O [(Z)-11-hexadecenyl acetate] | did not show significant binding | did not show significant binding | –
CCCCCC=O [hexanal] | did not exhibit significant affinity | did not exhibit significant affinity | –
